In the METLIN SMRT retention time set (Domingo-Almenara et al. 2019) one finds RP-LC retention time data, which are given here for 60 compounds.

Each structure is given as a SMILES string.

The series in a line: gradient 5% acetonitrile 3 min, to 50% in 2 min, to 85% in 15 min, held 3 min, 100 µL/min. Conditions: column: Zorbax Extend-C18 2.1 x 50 mm; eluents: water / acetonitrile, 0.1% formic acid. In short, it runs like this:
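In both positive and negative ionization mode, a quadrupole time-of-flight mass spectrometer coupled to HPLC analyzed pure standards run in mixtures of ~100 molecules. The Zorbax Extend-C18 column (2.1 × 50 mm, 1.8 μm) was operated at 100 μL/min with water and acetonitrile, each containing 0.1% formic acid. The dead volume was 40 μL and the dwell volume 900 μL. Retention time came from adduct peaks that were computationally picked and individually inspected by hand.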
As for `CCC(C)NC(=O)Cn1nc2cc(C)nc(-c3ccc(C(F)(F)F)cc3)n2c1=O` (stereo not given), the RP-LC retention time is 661 s.
The compound `Cc1sc(-c2cc(C(F)(F)F)on2)cc1S(=O)(=O)NCCC1=CCCCC1` registered an RP-LC retention time of 1320 s.
To `O=C(CCNc1c(-c2ccccc2)nc2cnccn12)NCC1CCCO1` (stereo not given) belongs 576 s; to `O=C(NCc1ccccc1)c1cc2c(=O)n(Cc3ccccc3)ccc2s1`, 896 s; to `Cc1ccc2c(c1)N(Cc1cccc(F)c1)N=C(C(=O)N1CCC(C)CC1)S2(=O)=O`, 1070 s.
To `O=S(=O)(c1cccc(-c2nnc(-c3ccc(F)cc3)o2)c1)N1CCOCC1` belongs 892 s; to `CCOc1cccc2sc(N(CCCN(C)C)C(=O)CN3C(=O)CCC3=O)nc12`, 559 s; to `COCCCNC(=O)C1CCN(c2ncccc2S(=O)(=O)N2CCCCC2)CC1`, 728 s.
Consider `Cc1ccc(C)c(S(=O)(=O)N2CCC(c3noc(-c4ccccc4C)n3)CC2)c1`, for which the RP-LC retention time worked out at 1270 s.
The compound `Cn1ncc2c3ccccc3n(CC(=O)NCCN3CCOCC3)c2c1=O` displayed an RP-LC retention time of 592 s.
To `CCc1ccccc1NC(=O)Cc1csc2nc(-c3ccc(C)c(C)c3)cn12` belongs 928 s.
To `O=C(CSc1nnc2scc(-c3ccc(Cl)cc3)n12)Nc1ccccc1F` belongs 839 s; to `O=C(Nc1cccn2c(C3CCC3)nnc12)c1ccco1`, 696 s.
To `Cn1ccc2cc(C(=O)NC3CCCC3)ccc21` belongs 806 s; to `O=c1c2nc(-c3cccc(Cl)c3)cn2ccn1-c1cccc(F)c1`, 871 s; to `Cc1ccc2c(Nc3cc(F)cc(F)c3)c(C(=O)N3CCSCC3)cnc2n1`, 645 s.
`COc1cc(OC)c(C(=O)CCCN2CCCC2)c(OC)c1` came in with an RP-LC retention time of 666 s.
To `CCCN1C(=O)c2cc(C(=O)NCc3ccc(F)cc3)nn2CC1(C)C(=O)NC1CCCC1` (stereo not given) belongs 824 s.
To `CN1CCN(S(=O)(=O)c2ccc3nn(CCc4ccccc4)c(=O)n3c2)CC1` belongs 627 s.
On to `Cc1cc(Cl)ccc1S(=O)(=O)N1CCc2nn(C)c(=O)n2CC1`, for which the RP-LC retention time is 756 s.
To `CC1CCCCN1CCCNC(=O)Cn1c2ccccc2c2cnn(C)c(=O)c21` (stereo not given) belongs 600 s; to `CC(C)NC(=O)N1CCCC(c2cccc(C(=O)NCCC3=CCCCC3)c2)C1` (stereo not given), 977 s.
For the compound `CCCNC(=O)c1nc2cc(C)c(C)cc2n(C)c1=O`, the RP-LC retention time came out at 747 s.
For the compound `CCc1nc2cc(N3CCCC(C(=O)N4CCC5(CC4)OCCO5)C3)cnc2nc1CC` (stereo not given), the RP-LC retention time was determined as 769 s.
To `COC(=O)c1cnc(N2CCN(c3ccccc3OC)CC2)c2ccccc12` belongs 1030 s; to `Cc1ccc(-c2noc(-c3cccc(S(=O)(=O)NCCCN4CCCCCC4)c3)n2)cc1`, 832 s.
`Cc1ccc(C)c(N2CCN(C(=O)c3nc4cccnc4n(C)c3=O)CC2)c1` yielded an RP-LC retention time of 653 s.
To `O=C(Cn1cccc1-c1nnc(-c2ccccc2)o1)N1CCN(c2ccccc2F)CC1` belongs 996 s.
To `O=S(=O)(c1cc(-c2nnc(C3CC3)o2)co1)N1CCN(c2ccccc2)CC1` belongs 960 s.
To `O=C(NCCCN1CCC(N2CCCCC2)CC1)c1cc(=O)n2c(nc3ccccc32)s1` belongs 577 s; to `NC1CC1c1ccccc1` (stereo not given), 621 s; to `CCc1nnc(NS(=O)(=O)c2ccc(N)cc2)s1`, 711 s.
On to `CC1=C(c2ccccc2)S(=O)(=O)N=C1N1CCCN(C(=O)c2ccccc2C)CC1`, for which the RP-LC retention time was 808 s.
To `CCCCn1c(=O)c2ccccc2n(Cc2nc(-c3ccc(OC)cc3)no2)c1=O` belongs 1160 s.
To `CCCC(=O)N1CCCC(COc2ccc(C(=O)NC(C)C)cc2)C1` (stereo not given) belongs 784 s; to `COC(c1ccccc1)(c1ccccc1)[C@H](Oc1nc(C)cc(C)n1)C(=O)O`, 913 s.
To `CC(=O)Nc1ccc(S(=O)(=O)NCCc2csc(C)n2)cc1` belongs 600 s; to `CC1CCC(NC(=O)c2nnc(-c3ccc(S(=O)(=O)N4CCC(C)CC4)cc3)o2)CC1` (stereo not given), 1210 s.
On to `COc1ccc(NC(=O)C2c3cc(OC)c(OC)cc3C(=O)N(C)C2c2cccs2)c(OC)c1` (stereo not given), for which the RP-LC retention time is 846 s.
To `OC1(c2ccccn2)CCOC2(CCN(Cc3ccc(F)cc3Cl)CC2)C1` (stereo not given) belongs 570 s; to `CCOC(=O)CNC(=O)Nc1ncc(-c2ccccc2)n1C`, 613 s; to `CC(C)N1C(=O)c2cccnc2Sc2cc(C(=O)N3CCN(C)CC3)ccc21`, 582 s.
On to `Cc1ccc(-n2cc3c(c(C(=O)N4CCN(c5ccccn5)CC4)c2=O)CC(C)(C)CC3=O)cc1`, for which the RP-LC retention time was 659 s.
To `CC1Oc2ccc(S(=O)(=O)N3CCC(C(=O)Nc4ccc(F)cc4)CC3)cc2NC1=O` (stereo not given) belongs 829 s; to `COc1ccc(OC)c(NC(=O)C2CCCN(c3nnc4ccc(Cl)cn34)C2)c1` (stereo not given), 810 s; to `CCOc1ccc(N2CC(c3nc(-c4cccnc4)no3)CC2=O)cc1` (stereo not given), 759 s.
To `CC1=C(c2ccc(Cl)cc2)S(=O)(=O)N=C1N1CCCN(C(=O)C2CCC2)CC1` belongs 850 s.
As for `COc1ccc(CC(=O)Nc2nnc(SCC(=O)NC3=NCCS3)s2)cc1`, the RP-LC retention time amounted to 682 s.
To `O=C(Nc1ccccc1C(F)(F)F)N1CCN(c2nc3c(F)cc(F)cc3s2)CC1` belongs 942 s; to `COc1ccc(CNC(=O)C2CCCN(c3ncnc4c3nc3n4CCCCC3)C2)cc1` (stereo not given), 732 s.
Turning to `Cc1nnsc1C(=O)Nc1nnc(-c2ccnn2C)o1`, the RP-LC retention time came to 665 s.
To `O=C(Cc1nnc(-c2cnccn2)o1)Nc1ccc(Cl)cc1Cl` belongs 753 s; to `CS(=O)(=O)c1ccc2nc(NC(=O)c3csc(-n4cccc4)n3)sc2c1`, 849 s; to `O=C(Cc1cccs1)N1CCc2cc(-c3ccno3)ccc21`, 919 s.
To `CCc1nc2ccccc2c(=O)n1Cc1noc(-c2cccc(OC)c2)n1` belongs 998 s.
To `CCSc1nnc(-c2nn(C)c3c2CN(S(=O)(=O)c2cccc(Cl)c2C)CC3)n1CC` belongs 1050 s; to `O=C(CCSc1ccccc1)NCC(O)c1cccc2ccccc12` (stereo not given), 841 s.
As for `COc1ccc(C2CC(=O)N(c3ccc(F)cc3F)C(=O)C2)cc1`, the RP-LC retention time was 931 s.
To `CC(NC(=O)c1cn(-c2ncccc2-c2nc(-c3ccccc3)no2)cn1)c1ccccc1` (stereo not given) belongs 966 s.
With `Cc1ccc(CN2CCC(CNS(=O)(=O)c3ccc4c(c3)CCCC(=O)N4)CC2)cc1`, the RP-LC retention time stood at 762 s.
